ChEMBL document CHEMBL1201862, “PubChem BioAssay data set” (2004)
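Values below derive from 48-hour exposures of cells grown in 96-well plates, with endpoints linearly interpolated between the two concentrations bracketing the appropriate inhibition level. GI50: concentration for 50% inhibition of growth.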 Active and inactive are the calls of the source. No stated cut-off is given here; in the data, active = GI50 up to about 1.1 µM and inactive = higher.

Assays:
Assay in all cases: DTP human tumour cell line panel, 48 h
ACHN = test system: ACHN
MCF7 = test system: MCF7
HT-29 = test system: HT-29
HCT-116 = test system: HCT-116
DU-145 = test system: DU-145
786-0 = test system: 786-0
UO-31 = test system: UO-31
KM12 = test system: KM12
SK-OV-3 = test system: SK-OV-3
HOP-62 = test system: HOP-62
MOLT-4 = test system: MOLT-4
NCI-H226 = test system: NCI-H226
SR = test system: SR
K562 = test system: K562
NCI-H23 = test system: NCI-H23
IGROV-1 = test system: IGROV-1
CAKI-1 = test system: CAKI-1
COLO 205 = test system: COLO 205
RXF 393 = test system: RXF 393
SF-268 = test system: SF-268
T47D = test system: T47D
UACC-62 = test system: UACC-62
SNB-19 = test system: SNB-19
MDA-MB-231 = test system: MDA-MB-231
NCI/ADR-RES = test system: NCI/ADR-RES
OVCAR-5 = test system: OVCAR-5
OVCAR-4 = test system: OVCAR-4
M14 = test system: M14
HCT-15 = test system: HCT-15
PC-3 = test system: PC-3
Hs-578T = test system: Hs-578T
NCI-H522 = test system: NCI-H522
EKVX = test system: EKVX
UACC-257 = test system: UACC-257
HL-60 = test system: HL-60
LOX IMVI = test system: LOX IMVI
U-251 = test system: U-251
A549 = test system: A549
SK-MEL-2 = test system: SK-MEL-2
CCRF-CEM = test system: CCRF-CEM
Malme-3M = test system: Malme-3M
HCC 2998 = test system: HCC 2998
SN12C = test system: SN12C
BT-549 = test system: BT-549
NCI-H460 = test system: NCI-H460
OVCAR-8 = test system: OVCAR-8
A498 = test system: A498
TK-10 = test system: TK-10
SK-MEL-5 = test system: SK-MEL-5
HOP-92 = test system: HOP-92
SK-MEL-28 = test system: SK-MEL-28
MDA-N = test system: MDA-N
RPMI-8226 = test system: RPMI-8226
SW-620 = test system: SW-620
SF-295 = test system: SF-295
MDA-MB-435 = test system: MDA-MB-435
SNB-75 = test system: SNB-75
SF-539 = test system: SF-539
OVCAR-3 = test system: OVCAR-3

CC1=NN=C(N)N/C1=C\C(Sc1ccc(Cl)cc1)c1ccc([N+](=O)[O-])cc1 (stereo unspecified)
GI50 (ACHN): 58.9 µM (inactive) | GI50 (MCF7): 57.9 µM (inactive) | GI50 (HT-29): > 100 µM (inactive) | GI50 (HCT-116): 39.8 µM (inactive) | GI50 (DU-145): > 100 µM (inactive) | GI50 (786-0): 38.1 µM (inactive) | GI50 (UO-31): 28.3 µM (inactive) | GI50 (KM12): 94 µM (inactive) | GI50 (SK-OV-3): > 100 µM (inactive) | GI50 (HOP-62): > 100 µM (inactive) | GI50 (MOLT-4): 93.5 µM (inactive) | GI50 (NCI-H226): 20.8 µM (inactive) | GI50 (SR): > 100 µM (inactive) | GI50 (K562): 62.4 µM (inactive) | GI50 (NCI-H23): 80.9 µM (inactive) | GI50 (IGROV-1): 39.1 µM (inactive) | GI50 (CAKI-1): > 100 µM (inactive) | GI50 (COLO 205): > 100 µM (inactive) | GI50 (RXF 393): > 100 µM (inactive) | GI50 (SF-268): 47.4 µM (inactive) | GI50 (T47D): > 100 µM (inactive) | GI50 (UACC-62): 91.6 µM (inactive) | GI50 (SNB-19): > 100 µM (inactive) | GI50 (MDA-MB-231): > 100 µM (inactive) | GI50 (NCI/ADR-RES): > 100 µM (inactive) | GI50 (OVCAR-5): > 100 µM (inactive) | GI50 (OVCAR-4): > 100 µM (inactive) | GI50 (M14): 62.1 µM (inactive) | GI50 (HCT-15): 94 µM | GI50 (PC-3): 66.7 µM (inactive) | GI50 (Hs-578T): > 100 µM (inactive) | GI50 (NCI-H522): 26900 nM (inactive) | GI50 (EKVX): 71.8 µM (inactive) | GI50 (UACC-257): 91.4 µM (inactive) | GI50 (HL-60): 32.8 µM (inactive) | GI50 (LOX IMVI): 51.8 µM (inactive) | GI50 (U-251): 66.7 µM (inactive) | GI50 (A549): > 100 µM (inactive) | GI50 (SK-MEL-2): > 100 µM (inactive) | GI50 (CCRF-CEM): 27.5 µM (inactive) | GI50 (Malme-3M): > 100 µM (inactive) | GI50 (HCC 2998): > 100 µM (inactive) | GI50 (SN12C): 81.1 µM (inactive) | GI50 (BT-549): 80 µM (inactive) | GI50 (NCI-H460): > 100 µM (inactive) | GI50 (OVCAR-8): > 100 µM (inactive) | GI50 (A498): > 100 µM (inactive) | GI50 (TK-10): > 100 µM (inactive) | GI50 (SK-MEL-5): 74.5 µM (inactive) | GI50 (HOP-92): > 100000 nM (inactive) | GI50 (SK-MEL-28): > 100 µM (inactive) | GI50 (MDA-N): 89.1 µM (inactive) | GI50 (RPMI-8226): 35.6 µM (inactive) | GI50 (SW-620): 85.3 µM (inactive) | GI50 (SF-295): > 100 µM (inactive) | GI50 (MDA-MB-435): 83.9 µM (inactive)

COC(=O)CNC(=O)CCC(C)[C@H]1CCC2C3C(C[C@H](OC(C)=O)[C@@]21C)[C@@]1(C)CCC2(C[C@H]1C[C@H]3OC(C)=O)OOC1(CC[C@]3(C)C4C[C@H](OC(C)=O)[C@@]5(C)C(CC[C@@H]5C(C)CCC(=O)NCC(=O)OC)C4[C@H](OC(C)=O)C[C@@H]3C1)OO2 (stereo partly specified)
GI50 (ACHN): 0.838 µM (active) | GI50 (SNB-75): 1.64 µM (inactive) | GI50 (MCF7): 2.71 µM (inactive) | GI50 (HT-29): 1.01 µM (active) | GI50 (HCT-116): 1.99 µM (inactive) | GI50 (DU-145): 0.933 µM (active) | GI50 (786-0): 0.76 µM (active) | GI50 (UO-31): 0.828 µM (active) | GI50 (KM12): 3.98 µM (inactive) | GI50 (SK-OV-3): 5.37 µM (inactive) | GI50 (HOP-62): 0.746 µM (active) | GI50 (MOLT-4): 0.163 µM (active) | GI50 (NCI-H226): 1.12 µM (active) | GI50 (SR): 0.381 µM (active) | GI50 (K562): 1.38 µM (inactive) | GI50 (NCI-H23): 1.03 µM (active) | GI50 (IGROV-1): 0.836 µM (active) | GI50 (CAKI-1): 2.15 µM (inactive) | GI50 (COLO 205): 0.875 µM (active) | GI50 (RXF 393): 0.931 µM (active) | GI50 (SF-268): 2.19 µM (inactive) | GI50 (T47D): 2.6 µM (inactive) | GI50 (SNB-19): 37.2 µM (inactive) | GI50 (MDA-MB-231): 1.31 µM (inactive) | GI50 (NCI/ADR-RES): 8.75 µM (inactive) | GI50 (OVCAR-5): 2.03 µM (inactive) | GI50 (OVCAR-4): 4.9 µM (inactive) | GI50 (M14): 1.37 µM (inactive) | GI50 (HCT-15): 1.33 µM | GI50 (PC-3): 1.64 µM (inactive) | GI50 (Hs-578T): 0.938 µM (active) | GI50 (NCI-H522): 991 nM (active) | GI50 (EKVX): 0.993 µM (active) | GI50 (UACC-257): 1.14 µM (inactive) | GI50 (HL-60): 1.11 µM (active) | GI50 (LOX IMVI): 0.962 µM (active) | GI50 (U-251): 3.78 µM (inactive) | GI50 (A549): 0.914 µM (active) | GI50 (SK-MEL-2): 0.764 µM (active) | GI50 (CCRF-CEM): 0.244 µM (active) | GI50 (Malme-3M): 0.782 µM (active) | GI50 (HCC 2998): 0.944 µM (active) | GI50 (SF-539): 959 nM (active) | GI50 (SN12C): 0.802 µM (active) | GI50 (BT-549): > 50 µM (inactive) | GI50 (NCI-H460): 2.07 µM (inactive) | GI50 (OVCAR-8): 0.746 µM (active) | GI50 (A498): 12 µM (inactive) | GI50 (TK-10): 1.19 µM (inactive) | GI50 (SK-MEL-5): 0.94 µM (active) | GI50 (HOP-92): 942 nM (active) | GI50 (SK-MEL-28): 1.61 µM (inactive) | GI50 (MDA-N): 3.44 µM (inactive) | GI50 (RPMI-8226): 0.309 µM (active) | GI50 (SW-620): 1.71 µM (inactive) | GI50 (SF-295): 5.65 µM (inactive) | GI50 (OVCAR-3): 3.03 µM (inactive) | GI50 (MDA-MB-435): 2.3 µM (inactive)

COC(=O)c1c(OC(C)=O)ccc2c1c1c(OC(C)=O)c3ccccc3c(OC(C)=O)c1n2Cc1ccccc1
GI50 (ACHN): 11.8 µM (inactive) | GI50 (SNB-75): 1.76 µM (inactive) | GI50 (MCF7): 13.5 µM (inactive) | GI50 (HT-29): 12.2 µM (inactive) | GI50 (HCT-116): 3.96 µM (inactive) | GI50 (DU-145): 11.1 µM (inactive) | GI50 (786-0): 12.1 µM (inactive) | GI50 (UO-31): 2.21 µM (inactive) | GI50 (KM12): 1.49 µM (inactive) | GI50 (SK-OV-3): 3.67 µM (inactive) | GI50 (HOP-62): 8.61 µM (inactive) | GI50 (MOLT-4): 7.46 µM (inactive) | GI50 (NCI-H226): 10.9 µM (inactive) | GI50 (SR): 1.64 µM (inactive) | GI50 (K562): 5.33 µM (inactive) | GI50 (NCI-H23): 6.03 µM (inactive) | GI50 (IGROV-1): 4.09 µM (inactive) | GI50 (CAKI-1): 9.62 µM (inactive) | GI50 (COLO 205): 7.91 µM (inactive) | GI50 (RXF 393): 5.77 µM (inactive) | GI50 (SF-268): 3.44 µM (inactive) | GI50 (T47D): 1.16 µM (inactive) | GI50 (UACC-62): 2.72 µM (inactive) | GI50 (SNB-19): 9.51 µM (inactive) | GI50 (MDA-MB-231): 4.09 µM (inactive) | GI50 (NCI/ADR-RES): 7.06 µM (inactive) | GI50 (OVCAR-5): 7.46 µM (inactive) | GI50 (OVCAR-4): 2.39 µM (inactive) | GI50 (M14): 2.93 µM (inactive) | GI50 (HCT-15): 4.78 µM | GI50 (PC-3): 1.55 µM (inactive) | GI50 (Hs-578T): 16.9 µM (inactive) | GI50 (NCI-H522): 783 nM (active) | GI50 (EKVX): 2.56 µM (inactive) | GI50 (UACC-257): 16.3 µM (inactive) | GI50 (HL-60): 3.33 µM (inactive) | GI50 (U-251): 2.43 µM (inactive) | GI50 (A549): 2.75 µM (inactive) | GI50 (SK-MEL-2): 1.37 µM (inactive) | GI50 (CCRF-CEM): 6.68 µM (inactive) | GI50 (Malme-3M): 7.8 µM (inactive) | GI50 (HCC 2998): 1.85 µM (inactive) | GI50 (SF-539): 1610 nM (inactive) | GI50 (SN12C): 10.5 µM (inactive) | GI50 (BT-549): 4.76 µM (inactive) | GI50 (NCI-H460): 2.24 µM (inactive) | GI50 (OVCAR-8): 9.44 µM (inactive) | GI50 (A498): 13.7 µM (inactive) | GI50 (TK-10): 13 µM (inactive) | GI50 (SK-MEL-5): 3.02 µM (inactive) | GI50 (HOP-92): 658 nM (active) | GI50 (SK-MEL-28): 9.77 µM (inactive) | GI50 (MDA-N): 14.2 µM (inactive) | GI50 (RPMI-8226): 1.52 µM (inactive) | GI50 (SF-295): 2.55 µM (inactive) | GI50 (OVCAR-3): 1.21 µM (inactive) | GI50 (MDA-MB-435): 9.95 µM (inactive)
